Measured values reported in ChEMBL document CHEMBL1201862, “PubChem BioAssay data set” (2004).
Structures can show the parent of a compound that is named as a salt.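 Interpolation was linear, between the two tested concentrations surrounding the appropriate level; five concentrations were tested over 48 hours in 96-well plates. GI50 marks 50% less growth.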 Active and inactive are the calls of the source. Cut-off read from the data, not from the text of the source: active = GI50 up to about 1.1 µM and inactive = higher.

Columns and labels:
Test in all cases: inhibition of tumour cell growth, NCI panel, 48 h
786-0 = tested on: 786-0
CCRF-CEM = tested on: CCRF-CEM
DU-145 = tested on: DU-145
EKVX = tested on: EKVX
HCT-116 = tested on: HCT-116
HCT-15 = tested on: HCT-15
Hs-578T = tested on: Hs-578T
MDA-N = tested on: MDA-N
Malme-3M = tested on: Malme-3M
NCI-H460 = tested on: NCI-H460
NCI-H522 = tested on: NCI-H522
NCI/ADR-RES = tested on: NCI/ADR-RES
RXF 393 = tested on: RXF 393
SF-295 = tested on: SF-295
SF-539 = tested on: SF-539
SK-MEL-28 = tested on: SK-MEL-28
SK-MEL-2 = tested on: SK-MEL-2
SNB-75 = tested on: SNB-75
T47D = tested on: T47D
M19-MEL = tested on: M19-MEL

Row | SMILES | GI50 (786-0) | GI50 (CCRF-CEM) | GI50 (DU-145) | GI50 (EKVX) | GI50 (HCT-116) | GI50 (HCT-15) | GI50 (Hs-578T) | GI50 (MDA-N) | GI50 (Malme-3M) | GI50 (NCI-H460) | GI50 (NCI-H522) | GI50 (NCI/ADR-RES) | GI50 (RXF 393) | GI50 (SF-295) | GI50 (SF-539) | GI50 (SK-MEL-28) | GI50 (SK-MEL-2) | GI50 (SNB-75) | GI50 (T47D) | GI50 (M19-MEL)
1 | COc1cc2c(cc1OCCCC(=O)Nc1cc(C(=O)Nc3cc(C(=O)Nc4cc(C(=O)NCCCN(C)C)n(C)c4)n(C)c3)n(C)c1)N=C[C@@H]1CCCN1C2=O | 1.12 µM (active) | 0.348 µM (active) | 3.47 µM (inactive) | 2.89 µM (inactive) | 1.69 µM (inactive) | 1.82 µM | 2.94 µM (inactive) | 1.84 µM (inactive) | 1.82 µM (inactive) | 3.21 µM (inactive) | 0.224 µM (active) | 2.22 µM (inactive) | 1.66 µM (inactive) | 12.2 µM (inactive) | 3.42 µM (inactive) | 2.15 µM (inactive) | 2.53 µM (inactive) | 3.3 µM (inactive) | 1.79 µM (inactive) | 
2 | CC(C)=CCC[C@@H](C)c1c2ncc[nH]c-2c(C)c(=O)c1O | 39.4 µM (inactive) | 4.53 µM (inactive) | 31.6 µM (inactive) | 26.2 µM (inactive) | 37.1 µM (inactive) | 6.46 µM | 23.2 µM (inactive) | 37.8 µM (inactive) | 13.8 µM (inactive) | 10.8 µM (inactive) | 1.76 µM (inactive) | 4.49 µM (inactive) | 24.6 µM (inactive) | 16.5 µM (inactive) | 22.2 µM (inactive) | 48.5 µM (inactive) | 18.6 µM (inactive) | 28.2 µM (inactive) | 25.9 µM (inactive) | 
3 | Nc1nc2c(ncn2C2OC(CO)C(O)C2N)c(=O)[nH]1 (configuration not stated) | 48.2 µM (inactive) | 40.1 µM (inactive) |  |  | > 100 µM (inactive) | > 100 µM |  |  | > 100 µM (inactive) | > 100 µM (inactive) | > 100 µM (inactive) |  |  | > 100 µM (inactive) | > 100 µM (inactive) | > 100 µM (inactive) | > 100 µM (inactive) | > 100 µM (inactive) |  | > 100 µM (inactive)
4 | O=C(/C=C\Nc1ccccc1O)C(F)(F)F | 35.1 µM (inactive) | 39 µM (inactive) | > 100 µM (inactive) | 51.2 µM (inactive) | 29.5 µM (inactive) | 40.8 µM | > 100 µM (inactive) | 43 µM (inactive) | 26.5 µM (inactive) | 67.5 µM (inactive) | 31 µM (inactive) | > 100 µM (inactive) | > 100 µM (inactive) | 50 µM (inactive) | > 100 µM (inactive) | > 100 µM (inactive) | 69 µM (inactive) | > 100 µM (inactive) | 39 µM (inactive) | 
5 | CC(=O)/C=N/CC(=O)O | > 100 µM (inactive) | > 100 µM (inactive) | > 100 µM (inactive) | > 100 µM (inactive) | > 100 µM (inactive) | > 100 µM | > 100 µM (inactive) | > 100 µM (inactive) | > 100 µM (inactive) | > 100 µM (inactive) | > 100 µM (inactive) | > 100 µM (inactive) | > 100 µM (inactive) | > 100 µM (inactive) | > 100 µM (inactive) | > 100 µM (inactive) | > 100 µM (inactive) | > 100 µM (inactive) | > 100 µM (inactive) | 
6 | O=C1/C(=C/c2ccc(Cl)cc2)CNC/C1=C\c1ccc(Cl)cc1 | 2.07 µM (inactive) |  |  |  | 1.65 µM (inactive) | 1.62 µM |  |  | 3.81 µM (inactive) | 2.11 µM (inactive) | 2.02 µM (inactive) |  |  |  | 1.77 µM (inactive) | 1.82 µM (inactive) |  | 2.9 µM (inactive) |  | 2.1 µM (inactive)
7 | O=C1c2ccccc2-c2cc([N+](=O)[O-])c([N+](=O)[O-])cc21 | 2.25 µM (inactive) | 0.243 µM (active) | 1.77 µM (inactive) | 2.04 µM (inactive) | 1.94 µM (inactive) | 1.78 µM | 3.78 µM (inactive) | 2.35 µM (inactive) | 1.91 µM (inactive) | 1.51 µM (inactive) | 1.05 µM (active) | 2.81 µM (inactive) | 1.33 µM (inactive) | 1.65 µM (inactive) | 0.485 µM (active) | 2.9 µM (inactive) | 1.87 µM (inactive) | 1.82 µM (inactive) | 0.748 µM (active) | 
8 | CCN(CC)CCNc1ccc(C)c2sc3ccccc3c(=O)c12 [LUCANTHONE HYDROCHLORIDE] | 3.02 µM (inactive) | 1.91 µM (inactive) | 6.67 µM (inactive) | 6.82 µM (inactive) | 1.91 µM (inactive) | 2.75 µM | 2.15 µM (inactive) | 1.95 µM (inactive) | 3.84 µM (inactive) | 1.97 µM (inactive) | 2.31 µM (inactive) | 4.3 µM (inactive) | 1.98 µM (inactive) | 2.18 µM (inactive) | 2.75 µM (inactive) | 1.82 µM (inactive) | 3.83 µM (inactive) | 2.06 µM (inactive) | 7.08 µM (inactive) | 
